Results from patent publication US11584766B2, “Nicotinamide phosphoribosyltransferase inhibitors and methods for use of the same” (THE TRUSTEES OF INDIANA UNIVERSITY, priority 2018, dated 2023).
“Also recorded” adds a separate entry of the source. Where two headings read alike, the source gives them in different places. Blank lines part the entries; values can stand above or below the compound they belong to.

Columns and labels:
[1] = test system: human pulmonary artery smooth muscle cells (hPASMCs); assay: CyQUANT Direct Assay (proliferation), hPASMC; type: cell-based; conditions: dose response, FIG. 9
Procedure: (§1) The effect of the compounds disclosed herein on the viability, proliferation, and apoptosis of human pulmonary artery endothelial cells (“hPAECs,”) and human pulmonary artery smooth muscle cells (“hPASMCs”) was determined using the PrestoBlue Assay (viability), CYQuant Direct or BrdU Assay (proliferation) or Tunel Assay (apoptosis), as described below.
(§2) HPAECs (1×10^4 cells/well) or HPASMCs (2.5×10^3 cells/well) were seeded in 96-well plates for 24 h in full-serum tissue culture medium. The full medium was removed prior to treatment with a NAMPT inhibitor prepared in medium containing 0.1% serum. NAMPT inhibitors were solubilized in 100% DMSO, unless otherwise indicated, prior to preparation of the dose response curve in 100% DMSO. The treatment dose response curve was diluted in 0.1% serum tissue culture medium and administered to cells for 24 h. DMSO diluted in the same medium was used as the vehicle control. Cell viability was measured according to the manufacturer's protocol by adding the PrestoBlue Cell Viability Reagent (ThermoFisher Scientific, #A13261) to cells for 20 min at 37° C. in a tissue culture incubator, followed by reading fluorescence at ex560/em590. Cell proliferation was measured, either in the same wells or in separate experiments, by adding the CyQuant Direct Confirmation Reagent (ThermoFisher Scientific, #C35011) for 1 h at 37° C. in a tissue culture incubator, followed by reading fluorescence at ex485/em538. Proliferation was also measured, in separate experiments, using the BrdU Cell Proliferation Assay (Calbiochem, #QIA58). After treatment with a NAMPT inhibitor for 24 h, BrdU was added to the cells in the presence of the inhibitor, for an additional 24 h and BrdU incorporation was detected according to the manufacturer's protocol. Apoptosis was analyzed by seeding cells (1×10^5 cells/well) in 6-well plates for 24 h in full-serum medium, followed by treatment with a NAMPT inhibitor for 24 h in full-serum medium. Tunel staining and detection was performed using the Tunel Assay Kit (Abcam, #ab66110) according to the manufacturer's protocol.

[2] = test system: human pulmonary artery smooth muscle cells (hPASMCs); assay: PrestoBlue Assay (viability), hPASMC; type: cell-based; conditions: for effect on HPASMC viability: dose response, FIG. 8; for IC50: hPASMC, 24 h treatment
Procedure: as §1, §2

[3] = Solubility (2.5% v/v DMSO/water); type: physicochemical
[4] = biological target: T1, NAMPT (Homo sapiens, UniProt P43490); assay: CycLex NAMPT Colorimetric Assay; type: biochemical; conditions: for IC50: CycLex NAMPT Colorimetric Assay Kit, read-out: NAMPT Inhibition IC50
T1 construct: purchased MBL International Corporation (CycLex NAMPT Colorimetric Assay Kit Ver.2)
T1 sequence (P43490 whole entry): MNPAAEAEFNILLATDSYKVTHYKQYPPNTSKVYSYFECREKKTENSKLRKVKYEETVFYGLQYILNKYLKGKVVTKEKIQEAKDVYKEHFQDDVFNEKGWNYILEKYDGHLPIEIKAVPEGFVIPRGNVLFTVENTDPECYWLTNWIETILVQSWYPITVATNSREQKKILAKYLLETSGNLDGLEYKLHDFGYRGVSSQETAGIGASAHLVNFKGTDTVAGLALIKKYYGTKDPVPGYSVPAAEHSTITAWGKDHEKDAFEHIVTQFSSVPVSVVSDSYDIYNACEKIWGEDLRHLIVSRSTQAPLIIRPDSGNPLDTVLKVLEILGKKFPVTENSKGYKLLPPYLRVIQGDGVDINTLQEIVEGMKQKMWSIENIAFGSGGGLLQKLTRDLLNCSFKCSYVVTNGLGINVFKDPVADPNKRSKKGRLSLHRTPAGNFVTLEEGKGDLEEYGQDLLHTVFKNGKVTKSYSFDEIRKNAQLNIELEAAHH
Procedure: The ability of the compounds of the disclosure to inhibit NAMPT was determined using the CycLex NAMPT Colorimetric Assay Kit Ver.2 by MBL International Corporation.
The assay detects NAMPT activity in recombinant NAMPT or endogenous NAMPT immunoprecipiated from cell lysates according to the scheme shown in FIG. 3. In this method, NAMPT converts nicotinamide to nicotinamide mononucleotide (“NMN”). Subsequently, nicotinamide mononucleotide adenylyltransferase 1 (“NMNAT1”) converts NMN to NAD^+. Resultant NAD^+ can be measured by enzyme cycling reaction using alcohol dehydrogenase (“ADH”), diaphorase and WST-1.

[5] = test system: monocrotaline (MCT)-induced pulmonary hypertension; assay: MCT-induced pulmonary hypertension in rats; type: in vivo, rat; conditions: 5 mg/kg every other day IP, days 22-35
Procedure: (§3) The ability of the compounds disclosed herein to attenuate pulmonary vascular remodeling associated with pulmonary arterial hypertension was determined using monocrotaline (“MCT”)-induced pulmonary hypertension as well as Sugen-Hypoxia-induced pulmonary hypertension in rats.
MCT 60 mg/kg IP was injected in Sprague Dawley rats. After 21 days when PH was established DGMS-RARI (5 mg/kg every other day) was injected intraperitonealy from days 22-35. At day 35 PH assessments (RVSP measurements via right heart catheterization, RVH measurement via assessment of the ratio between the weight of the right ventricle over the weight of the left ventricle+septum and pulmonary vascular remodeling assessment of H&E stained pulmonary arteries) were performed.

[6] = test system: Sugen-Hypoxia-induced pulmonary hypertension; assay: Sugen-Hypoxia-induced pulmonary hypertension in rats; type: in vivo, rat; conditions: 5 mg/kg every other day IP, days 35-49
Procedure: as §3
Sugen 10 mg/kg IP was injected in Sprague Dawley rats who were then exposed to 10% hypoxia for 21 days. After 21 rats were returned to normoxia for 14 days. After 35 when PH was established DGMS-RARI (5 mg/kg every other day) was injected intraperitonealy from days 35-49. At day 49 PH assessments (RVSP measurements via right heart catheterization, RVH measurement via assessment of the ratio between the weight of the right ventricle over the weight of the left ventricle+septum and assessment of right ventricular function via echocardiography) were performed.

[7] = test system: human pulmonary artery endothelial cells (hPAECs); assay: CyQUANT Direct Assay (proliferation), hPAEC; type: cell-based; conditions: for IC50: hPAEC, 24 h treatment; for effect on HPAEC proliferation (CYQuant Direct assay): dose response, FIG. 5
Procedure: as §1, §2

[8] = test system: human pulmonary artery endothelial cells (hPAECs); assay: PrestoBlue Assay (viability), hPAEC; type: cell-based; conditions: for IC50: hPAEC, 24 h treatment; for effect on HPAEC viability: dose response, FIG. 4
Procedure: as §1, §2

[9] = Plasma concentration and biochemical parameters in MCT-induced rats; type: in vivo, rat
Excerpt: Moreover, significant abnormalities in biochemical parameters and electrolytes were not observed.

[10] = test system: HepG2 cells; assay: Seahorse XF Metabolism Assay (Cell Energy Phenotype Test); type: cell-based; design: Baseline OCR / Stressed OCR / Baseline ECAR / Stressed ECAR: unit not given here
Procedure: The effect of the compounds disclosed herein on metabolism was determined using the Seahorse XF Cell Energy Phenotype Test Kit by Agilent Technologies. See Agilent Seahorse XF Cell Energy Phenotype Test Kit, User Guide, Manual Part Number 103325-400, Kit Part Number 103325-100, First Edition, March 2017 Agilent Technologies, Inc. This assay measures mitochondrial respiration and glycolysis under baseline and stressed conditions to determine baseline phenotype, stressed phenotype, and metabolic potential.

[11] = in vivo; cited from earlier work
[12] = test system: vascular remodeling caused by PAH; conditions: rat models; cited from earlier work
[13] = test system: human pulmonary artery endothelial cells (hPAECs); assay: Tunel Assay (apoptosis), hPAEC; type: cell-based; conditions: for effect on HPAEC apoptosis: dose response, FIG. 7; for IC50: hPAEC
Procedure: as §1, §2

[14] = test system: human pulmonary artery endothelial cells (hPAECs); assay: BrdU Assay (proliferation), hPAEC; type: cell-based; conditions: dose response, FIG. 6
Procedure: as §1, §2

[15] = test system: human pulmonary artery smooth muscle cells (hPASMCs); assay: Tunel Assay (apoptosis), hPASMC; type: cell-based
Procedure: as §1
HPAECs (1×10^4 cells/well) or HPASMCs (2.5×10^3 cells/well) were seeded in 96-well plates for 24 h in full-serum tissue culture medium. The full medium was removed prior to treatment with a NAMPT inhibitor prepared in medium containing 0.1% serum. NAMPT inhibitors were solubilized in 100% DMSO, unless otherwise indicated, prior to preparation of the dose response curve in 100% DMSO. […] Cell viability was measured according to the manufacturer's protocol by adding the PrestoBlue Cell Viability Reagent (ThermoFisher Scientific, #A13261) to cells for 20 min at 37° C. in a tissue culture incubator, followed by reading fluorescence at ex560/em590. Cell proliferation was measured, either in the same wells or in separate experiments, by adding the CyQuant Direct Confirmation Reagent (ThermoFisher Scientific, #C35011) for 1 h at 37° C. in a tissue culture incubator, followed by reading fluorescence at ex485/em538. Proliferation was also measured, in separate experiments, using the BrdU Cell Proliferation Assay (Calbiochem, #QIA58). […]

[16] = test system: human pulmonary artery smooth muscle cells (hPASMCs); assay: BrdU Assay (proliferation), hPASMC; type: cell-based
Procedure: as §1, §2

[17] = Homo sapiens, Endothelial cell, 24 h

SMILES: CC[Si]1(CC)c2ccccc2N(C(=O)CCCCCNC(=O)/C=C/c2cccnc2)C1C.Cl (centres unmarked) [DGMS-RAR-5•HCl]
- effect on HPASMC proliferation (CYQuant Direct assay) [1]: dose-dependently decrease cell proliferation
- effect on HPASMC viability [2]: dose-dependently decrease cell viability
- Solubility (2.5% v/v DMSO/water) [3]: Good
- inhibition at 10 µM ([4]; 10 μM): 98%
- IC50 [4]: 0.023 µM

SMILES: O=C(/C=C/c1cccnc1)NCCCCCCn1c(-c2ccccc2)cc2ccccc21 [DGMS-RARI]
- degree of pulmonary vascular remodeling [5]: decreased
- degree of right ventricular hypertrophy [5]: decreased
- severity of elevations in RVSP [5]: decreased
- effect on HPASMC viability [2]: dose-dependently decrease cell viability
- degree of right ventricular dysfunction [6]: decreased
- degree of right ventricular hypertrophy [6]: decreased
- severity of elevations in RVSP [6]: decreased
- IC50 [7, 17]: 2.88 µM
- effect on HPAEC proliferation (CYQuant Direct assay) [7]: dose-dependently decrease cell proliferation
- IC50 [8, 17]: 117 µM
- effect on HPAEC viability [8]: dose-dependently decrease cell viability
- abnormalities in biochemical parameters and electrolytes ([9]; 5 mg/kg): not observed
- average concentration in rat plasma ([9]; 5 mg/kg intravenously, intraperitoneally and orally): decreased with time
- Baseline ECAR ([10]; HepG2, 80 nM): 16.16
- Baseline OCR ([10]; HepG2, 80 nM): 98.19
- Metabolic Potential (% Baseline ECAR) ([10]; HepG2, 80 nM): 288.54 % Baseline ECAR
- Metabolic Potential (% Baseline OCR) ([10]; HepG2, 80 nM): 154.82 % Baseline OCR
- Stressed ECAR ([10]; HepG2, 80 nM): 46.64
- Stressed OCR ([10]; HepG2, 80 nM): 152.08
- Baseline ECAR ([10]; HepG2, 2 uM): 12.28
- Baseline OCR ([10]; HepG2, 2 uM): 73.92
- Metabolic Potential (% Baseline ECAR) ([10]; HepG2, 2 uM): 334.84 % Baseline ECAR
- Metabolic Potential (% Baseline OCR) ([10]; HepG2, 2 uM): 154.18 % Baseline OCR
- Stressed ECAR ([10]; HepG2, 2 uM): 37.11
- Stressed OCR ([10]; HepG2, 2 uM): 111.06
- Baseline ECAR ([10]; HepG2, 10 uM): 18.28
- Baseline OCR ([10]; HepG2, 10 uM): 60.26
- Metabolic Potential (% Baseline ECAR) ([10]; HepG2, 10 uM): 194.22 % Baseline ECAR
- Metabolic Potential (% Baseline OCR) ([10]; HepG2, 10 uM): 148.94 % Baseline OCR
- Stressed ECAR ([10]; HepG2, 10 uM): 31.23
- Stressed OCR ([10]; HepG2, 10 uM): 89.62
- inhibition at 10 µM ([10]; Homo sapiens, HepG2 cells, high doses (10 uM), read-out: inhibition of the maximal oxygen consumption rate): ~30%
- effect on cellular respiration ([10]; physiological doses (≤80 nM)): no effect on cellular respiration
- inhibition at 10 µM [4]: 98%
- IC50 [4]: 0.014 µM

SMILES: O=C(/C=C/c1cccnc1)NCCCCC1CCN(C(=O)c2ccccc2)CC1 [FK866]
- IC50 [7, 17]: 60.3 µM
- renal toxicity [11]: exhibit renal toxicity
- vascular remodeling caused by PAH [12]: prevent and reverse

- IC50 [13]: 117 µM
- IC50 [15]: 94.1 µM
SMILES: O=C(/C=C/c1cccnc1)NCCCCCC(=O)N1c2ccccc2CC1c1ccccc1 (centres unmarked) [DGMS-RAR-7•HO3SMe]
- effect on HPAEC apoptosis [13]: dose-dependently decrease apoptosis
- effect on HPAEC proliferation (BrdU assay) [14]: dose-dependently decrease cell proliferation
- effect on HPASMC proliferation (CYQuant Direct assay) [1]: dose-dependently decrease cell proliferation
- effect on HPASMC viability [2]: dose-dependently decrease cell viability
- IC50 [2]: 26.6 µM
- effect on HPAEC proliferation (CYQuant Direct assay) ([7]; listed as DGMS-RAR-7-HO3SMe): dose-dependently decrease cell proliferation
- effect on HPAEC proliferation (CYQuant Direct assay) ([7]; listed as DGMS-RAR-7.HO3SMe): reduction
- IC50 [7]: 31.9 µM
- effect on HPAEC viability [8]: dose-dependently decrease cell viability; also recorded: reduction
- IC50 [8]: 17.1 µM

SMILES: N#CN=C(NCCCCCCOc1ccc(Cl)cc1)Nc1ccncc1 [CHS-828]
- vascular remodeling caused by PAH [12]: prevent and reverse

- IC50 ([13]; Homo sapiens, Endothelial cell): 183 µM
- IC50 ([15]; Homo sapiens): 116 µM
- Solubility (2.5% v/v DMSO/water) [3]: Good
- IC50 [4]: 0.015 µM
SMILES: Cl.O=C(/C=C/c1cccnc1)NCCCCCC(=O)N1c2ccccc2CC1c1ccccc1 (centres unmarked) [DGMS-RAR-7•HCl]
- effect on HPAEC apoptosis [13]: dose-dependently decrease apoptosis
- effect on HPAEC proliferation (BrdU assay) [14]: dose-dependently decrease cell proliferation
- IC50 [16]: 63.9 µM
- effect on HPASMC proliferation (CYQuant Direct assay) [1]: dose-dependently decrease cell proliferation
- IC50 ([2]; Homo sapiens, 24 h): 31.1 µM
- effect on HPASMC viability [2]: dose-dependently decrease cell viability
- effect on HPAEC proliferation (CYQuant Direct assay) ([7]; listed as DGMS-RAR-7-HCl): dose-dependently decrease cell proliferation
- effect on HPAEC proliferation (CYQuant Direct assay) ([7]; listed as DGMS-RAR-7.HCl): reduction
- IC50 [7]: 26.6 µM
- effect on HPAEC viability [8]: dose-dependently decrease cell viability; also recorded: reduction
- IC50 [8]: 13.9 µM
